Results as given in US20200010910A1, “Cytotoxic Chemotherapy-Based Predictive Assays for Acute Myeloid Leukemia” (The Regents of The University of California, priority 2017, published 2020).

Assays:
A549, H1975 and HCC827 = assay: carboplatin-DNA monoadducts by AMS, average of resistant NSCLC lines; format: cell-based, human; settings: three resistant cell lines
Procedure: NSCLC cell lines were cultured to >90% confluence, dosed with [^14C]carboplatin, and subjected to DNA isolation and AMS analysis. 60 mm dishes were seeded at a density of 1×10^6 cells/dish and allowed to attach overnight in a 37° C. humidified atmosphere containing 5% CO2. At hour 0, cells were dosed with 1 μM (relevant microdose concentration) or 100 μM carboplatin (therapeutically relevant concentration), each comprising 0.3 μM [^14C]carboplatin (50,000 dpm/ml). Cells were incubated with [^14C]carboplatin for 4 h before washing and cultured with carboplatin-free medium to mimic the in vivo carboplatin half-life (1.3-6 hours) in patients. DNA was harvested from the cell lines at hours 0, 2, 4, 8 and 24 hours after initial dosing. Ten micrograms of DNA per sample was converted to graphite and measured by AMS for ^14C/total C quantification. Triplicate sets of AMS experiments were performed for each cell line and time point. The 14C/total C ratio was converted to 14C atoms per DNA base-pair according to the algorithm described herein to provide values of carboplatin-DNA monoadducts per 10^8 nucleotides. The data was plotted as carboplatin-DNA monoadducts per 10^8 nucleotide (nt) vs time (FIGS. 8A and 8B). There was a time-dependent increase in the carboplatin-DNA monoadduct concentration during the first 4 hours of incubation with therapeutic or microdosing carboplatin (FIGS. 8A and 8B). […]

H727 = assay: carboplatin-DNA monoadducts by AMS; format: cell-based, human
Procedure: (§1) NSCLC cell lines were cultured to >90% confluence, dosed with [^14C]carboplatin, and subjected to DNA isolation and AMS analysis. 60 mm dishes were seeded at a density of 1×10^6 cells/dish and allowed to attach overnight in a 37° C. humidified atmosphere containing 5% CO2. At hour 0, cells were dosed with 1 μM (relevant microdose concentration) or 100 μM carboplatin (therapeutically relevant concentration), each comprising 0.3 μM [^14C]carboplatin (50,000 dpm/ml). Cells were incubated with [^14C]carboplatin for 4 h before washing and cultured with carboplatin-free medium to mimic the in vivo carboplatin half-life (1.3-6 hours) in patients. DNA was harvested from the cell lines at hours 0, 2, 4, 8 and 24 hours after initial dosing. Ten micrograms of DNA per sample was converted to graphite and measured by AMS for ^14C/total C quantification. Triplicate sets of AMS experiments were performed for each cell line and time point. The 14C/total C ratio was converted to 14C atoms per DNA base-pair according to the algorithm described herein to provide values of carboplatin-DNA monoadducts per 10^8 nucleotides. The data was plotted as carboplatin-DNA monoadducts per 10^8 nucleotide (nt) vs time (FIGS. 8A and 8B). There was a time-dependent increase in the carboplatin-DNA monoadduct concentration during the first 4 hours of incubation with therapeutic or microdosing carboplatin (FIGS. 8A and 8B). After the cells were washed and incubated with carboplatin-free media, the monoadduct levels decreased over a period of several hours. […] Carboplatin-DNA monoadduct levels in the microdosing group had essentially the same kinetics as the therapeutic group, but with 100-fold lower adduct levels at each time point (FIGS. 8A and 8B).

HCC827 = assay: carboplatin-DNA monoadducts by AMS; format: cell-based, human
Procedure: as §1

H460 = assay: carboplatin-DNA monoadducts by AMS; format: cell-based, human
Procedure: as §1

H1975 = assay: carboplatin-DNA monoadducts by AMS; format: cell-based, human
Procedure: as §1

H23 2A tumor xenograph = assay: tumor response to therapeutic carboplatin; format: in vivo, nude mice; settings: sensitive H23 2A xenograph; single IV 37.3 mg/kg; 14 days
Excerpt: (§2) Xenograft mouse tumors consisting of one carboplatin resistant and one sensitive tumor type were established for in vivo evaluation of carboplatin-DNA monoadduct formation and repair in tumor tissue and for in vivo evaluation of tumor response to therapeutic dosing with carboplatin. Tumor xenografts were established in 1-2 month old nude mice by injecting approximately one million cells into the left and right flanks, and allowed to develop tumors of less than 1 cm^3 over approximately 4 weeks prior to DNA adduct studies. Mice bearing resistant and sensitive tumors were exposed to either a microdose or therapeutic dose of carboplatin by tail vein injection. DNA isolated from tumor tissue was evaluated for carboplatin-DNA monoadduct frequency levels as a function of time. For tumor response, mice bearing resistant and sensitive tumors were therapeutically treated with a single IV injection of 37.3 mg/kg of carboplatin and then examined for tumor growth as assessed by measuring palpable tumors with a caliper and calculating tumor volume.
(§3) Mice xenografted with sensitive (H232A) and resistant (A549) lung cancer cell lines were infused with a therapeutic dose of carboplatin to assess tumor response. The tumors were measured daily over 14 days post infusion (FIG. 10C). Tumor size was normalized as the ratio of tumor diameter to the tumor diameter measured on day 0 (no change=1.0). […]

A549 tumor xenograph = assay: tumor response to therapeutic carboplatin; format: in vivo, nude mice; settings: resistant A549 xenograph; single IV 37.3 mg/kg; 14 days
Excerpt: as §2, §3

[1] = 1 μM carboplatin 4 h, up to 24 hours
[2] = 1 μM carboplatin 4 h then drug-free
[3] = 100 μM carboplatin 4 h, up to 24 hours
[4] = 100 μM carboplatin 4 h then drug-free

N.N.O=C([O-])C1(C(=O)[O-])CCC1.[Pt+2] [carboplatin]
average area under curve (AUC) of carboplatin-DNA monoadducts (A549, H1975 and HCC827; microdosing): 43.36±9.55 hr-monoadducts per 10^8 nt | average area under curve (AUC) of carboplatin-DNA monoadducts (A549, H1975 and HCC827; therapeutic dosing): 3916.7±1280.0 hr-monoadducts per 10^8 nt | Adduct level-4 hr-microdose (H727; 1 μM carboplatin): 6.23 ± 2.73 /10^8 nt | AUC of adduct-microdose (H727; [1]): 61.7 ± 9.0 hr-adducts/10^8 nt | Adduct level-24 hr Microdose (H727; [2]): 1.3 ± 0.1 /10^8 nt | Adduct level-4 hr-therapeutic (H727; 100 μM carboplatin): 684 ± 223.5 /10^8 nt | AUC of adduct-therapeutic (H727; [3]): 6111 ± 661 hr-adducts/10^8 nt | Adduct level-24 hr-therapeutic (H727; [4]): 174 ± 5.6 /10^8 nt | Adduct level-4 hr-microdose (HCC827; 1 μM carboplatin): 2.5 ± 0.0 /10^8 nt | AUC of adduct-microdose (HCC827; [1]): 51.7 ± 2.4 hr-adducts/10^8 nt | Adduct level-24 hr Microdose (HCC827; [2]): 1.8 ± 0.3 /10^8 nt | Adduct level-4 hr-therapeutic (HCC827; 100 μM carboplatin): 295 ± 58.8 /10^8 nt | AUC of adduct-therapeutic (HCC827; [3]): 4941 ± 739 hr-adducts/10^8 nt | Adduct level-24 hr-therapeutic (HCC827; [4]): 162 ± 15.4 /10^8 nt | Adduct level-4 hr-microdose (H460; 1 μM carboplatin): 6.8 ± 0.2 /10^8 nt | AUC of adduct-microdose (H460; [1]): 85.6 ± 8.4 hr-adducts/10^8 nt | Adduct level-24 hr Microdose (H460; [2]): 1.0 ± 0.4 /10^8 nt | Adduct level-4 hr-therapeutic (H460; 100 μM carboplatin): 885 ± 36.3 /10^8 nt | AUC of adduct-therapeutic (H460; [3]): 9488 ± 902 hr-adducts/10^8 nt | Adduct level-24 hr-therapeutic (H460; [4]): 177 ± 11.5 /10^8 nt | Adduct level-4 hr-microdose (H1975; 1 μM carboplatin): 3.3 ± 0.5 /10^8 nt | AUC of adduct-microdose (H1975; [1]): 47.0 ± 4.8 hr-adducts/10^8 nt | Adduct level-24 hr Microdose (H1975; [2]): 1.1 ± 0.6 /10^8 nt | Adduct level-4 hr-therapeutic (H1975; 100 μM carboplatin): 322 ± 24.1 /10^8 nt | AUC of adduct-therapeutic (H1975; [3]): 4478 ± 353 hr-adducts/10^8 nt | Adduct level-24 hr-therapeutic (H1975; [4]): 108 ± 33.3 /10^8 nt | tumor response (growth after chemotherapy) (H23 2A tumor xenograph): did not display any growth | tumor response (growth after chemotherapy) (A549 tumor xenograph): continued to grow
